For one test, the system named is JEV T1P1. Kind of test: Cytopathic effect test, JEV T1P1-infected BHK-21 cells. It counts as cell-based, Japanese encephalitis virus. The procedure:
BHK-21 cells and/or TE671cells were separately cultured in a 24-well culture plate, with an initial density of 3×10^4 per well, and with 1 ml of 2% FBS-containing MEM medium per well. The cells were incubated in an incubator (37° C., 5% CO2) overnight, and the medium was removed until the cells adhered to the plate. Then, fresh 2% FBS-containing MEM medium was simultaneously added into each well of the culture plate. The cells were infected with a JEV T1P1 virus strain, wherein the amount of JEV T1P1 used to infect BHK-21 cells was a multiplicity of infection (M.O.I.)=0.1, and the amount of JEV T1P1 used to infect TE671 cells was M.O.I.=0.05. Different concentrations of compound 1 (final concentrations were 0, 2.5, 25 and 125 μM, respectively) were added into different wells. The culture plate was placed into an incubator (37° C., 5% CO2) and maintained therein.
When BHK-21 cells were infected with JEV T1P1 virus strain for 48 and 72 hours as indicated in the above experiment (1), the cytopathic effect was observed by photography, while the cytopathic effect of TE671 cells was observed by photography when TE671 cells were infected with the JEV T1P1 virus strain for 36 and 48 hours. In addition, 200 μl culture medium supernatant of both cells was collected from each time point (i.e., 48 and 72 hours), thereby, providing the use for a viral plaque test in Example 4.
(In general: Protection from cytopathic effect is a common read-out in antiviral testing.)

The subject of another test is DEN2. Kind of test: Dengue virus replication, DEN2 NS1 antigen-capture ELISA in Huh7 cells. It counts as cell-based, dengue virus type 2. The note with it: M.O.I.=5, 48 hours, compound 10 μM. As for the experimental part: Huh7 cells were cultured in a 24-well culture plate with an initial density of 3×10^4 per well, and with 1 ml of 2% FBS-containing MEM medium per well. The cells were incubated in an incubator (37° C., 5% CO2) overnight. The medium was removed until the cells adhered to the plate. Then, 1 ml of fresh 2% FBS-containing MEM medium was simultaneously added into each well of the culture plate. The cells were infected with DEN2 virus strain (M.O.I.=5). Different concentrations of compound 1 (the final concentrations were 0, 10, 50, 100 and 150 μM, respectively) were added into different wells. The culture plate was placed into an incubator (37° C., 5% CO2) and maintained for 48 hours. The supernatant of viral medium was collected.
The above obtained supernatant was analyzed by an antigen-capture enzyme-linked immunosorbent assay (ELASA) to quantitate the DEN2 NSI protein level in the viral medium. First, a NS1 antibody was added into each well of a 96-well micro-reaction plate (200 μl/well) and the reaction was maintained at 4° C. overnight. Each well was washed with PBST 3 times (200 μl/time). A 1% BSA-containing blocking buffer (300 μl) was added into each well. […] The reading value of DEN NS1 protein amount in each supernatant was determined by examining the absorbances at a wavelength of 450 nm to evaluate DEN2 replication.

Regarding `CCOC(=O)C1=C(Nc2cc(C)cc(C)c2)OCC1=O` [Compound 1, ethyl 2-(3′,5′-dimethylanilino)-4-oxo-4,5-dihydrofuran-3-carboxylate], the “JEV T1P1-induced cytopathic effect” value in the test with JEV T1P1 (infected 48 hours, M.O.I.=0.1, compound 25 μM simultaneously) is reported as “significantly reduced”; in the test with JEV T1P1 (infected 72 hours, M.O.I.=0.1, compound 125 μM simultaneously), “effectively inhibited”. Moreover, the “level of DEN2 NS1 protein” value with DEN2 is recorded as “reduced”.

These data come from US9205073B2, “Method for treating virus infection using derivative of aniline” (CHINA MEDICAL UNIVERSITY, priority 2014, dated 2015).
